What was measured:
[1] = Transfer rate constants of the Gallimore-Strassman two-compartment model, calculated from G-S Table 2; design: species or system human
Source text: For consistency with the G-S model, referred to here as FIG. 1 is the (prior art) model from the 2016 paper by Gallimore Strassman (prior art), where: • k10 rate of elimination from the central compartment (min^−1) • k12 transfer rate from central to peripheral compartment (min^−1) • T same as k12 • k21 transfer rate from peripheral to central compartment (min^−1) • K1e transfer rate from central compartment to effect site (min^−1) • Ke0 rate of elimination of drug from the effect site (min^−1) E same as ke0 • CT plasma concentration (mg/ml) • RT rate at which drug reaches the effect site (mg/min) • [C] DMT concentration in the central compartment (mg/ml) • [P] DMT concentration in the peripheral compartment (mg/ml) […].
It should be appreciated that the notation used in the prior art (G-S) is very different from the notation used herein in developing the models in the present disclosure. In G-S (p. 5), E is used for the elimination rate, without it being made clear if this is the elimination rate from the effect site or from the central compartment. Also, T is used interchangeably with k12 from G-S FIG. 1. The extra parameters in G-S Table 2, Vc (L), Vp (L), Km (mg/L), Vm (mg/min), Q12 (L/min) are not defined, modulo a minor footnote (bottom of p. 4) stating that:

infusion veins = test: Venous response to intravenous administration of DMT; assay type: in vivo
Source text: A second, and perhaps more serious issue, with the Gallimore Strassman paper is the administration of DMT intravenously. […] This is especially true of serotonergic drugs which, as noted, can be phlebitic at the site of administration. This in combination with probable chemical irritation, even with iso-osmolar concentrations buffered to a physiologic pH (using DMT fumarate or similar salt), intravenous thrombophlebitis can occur at a rate

subject [2] = settings: believed, not measured; cited from earlier work
[3] = higher dose, 0.4 mg/kg bolus (G-S FIG. 2A); cited from earlier work
humans [4] = settings: IV single bolus; cited from earlier work
humans [5] = settings: cited from earlier work
subject [6] = test: Intramuscular bolus plus infusion of DMT, subject-reported effects; assay type: in vivo, human
Method: In intramuscular infusion, the muscle is first loaded which then diffuses into the peripheral soft tissues, the lymphatics and blood, and then the CNS. The result is a very gentle rise in effect, with the earliest effects usually noticed within the first 2 minutes, and the subject experiencing threshold effects somewhere between 5 and 15 minutes. The intensification of the experience is slow, and while there is some overshoot, it is quite manageable, and usually lasts for only minutes. The key here is turning the pump off when the ideal state is reached, or at the earliest sign of being above the ideal level and reporting when those levels have been achieved.
The same assumptions for IV infusion are made with IM infusion, a 75 kg individual who identifies smoking 25 mg of DMT as an ideal dose. A muscle should be chosen for access with the infusion needle. While any muscle will work, the most favorable option is probably the anterolateral thigh. This allows the patient to be positioned supine comfortably. If the anterolateral thigh is chosen, appropriate garments should be worn by the patient to expose the thigh in a manner that is suitable for access. […]
When the subject is ready, the bolus dose is administered over a short amount of time, preferably about 60 seconds, from time t=0 to t=1 minute. […]

[7] = cited from earlier work
vein = test: Additives to the intravenous DMT infusion, flow rate and venous injury; assay type: in vivo; settings: magnesium 0.1 mg/mL to 100 mg/mL in DMT infusion or maintenance line
Source text: In this respect, the inventors addressed the following goals: • 1. […] A method for combining goals 1 and/or 2 with nitroglycerine ointment on the vein to be cannulated prior to gaining intravenous access, which improves vein patency and dilution from blood flow as well as normal saline. • 4. A method for creating an injectable form of a DMT salt such as fumarate, or freebase DMT in a solution or suspension or emulsion in an iso-osmolar or near iso-osmolar carrier such as hyaluronic acid or polyethylene glycol, as to minimize molecular interaction with the walls and endothelium of the peripheral vasculature, while maintaining water soluble or miscible properties as to not adversely affect the pharmacokinetics. • 5. A method for utilizing goal 4, with any other drug or substance that may cause venous irritation, to minimize the risk of thrombophlebitis, such as nanoparticles or crystals in suspension, or similarly, chemotherapeutic drugs, anesthetic agents and the like.

[8] = inhaling vaporized or smoked DMT, or single IV bolus

Structure (SMILES) | k12, transfer rate from central to peripheral compartment ([1]; 0.2 mg/kg) [min⁻¹] | k21, transfer rate from peripheral to central compartment ([1]; 0.2 mg/kg) [min⁻¹] | k12, transfer rate from central to peripheral compartment ([1]; 0.4 mg/kg) [min⁻¹] | k21, transfer rate from peripheral to central compartment ([1]; 0.4 mg/kg) [min⁻¹] | venous effects of intravenous administration (infusion veins) | CNS concentration equating to a full experience (subject [2]) | CNS concentration equating to a threshold experience (subject [2]) | blood concentration [3] [ng/mL] | onset of psychological effects (humans [4]) | time by which psychological effects were almost completely resolved (humans [4]) [minutes] | time of peak psychological effects (humans [4]) [seconds] | duration of experience (humans [5]; [8]) [min] | time of peak experience (humans [5]; [8]) | effect of oral ingestion (humans [5]; oral ingestion, rapid metabolism by monoamine oxidase) | time to earliest drug effects (subject [6]) [min] | time for drug effects to fully abate after pump is turned off (subject [6]; pump off) | biological half-life ([7]; in vivo) | half-life of injected DMT ([7]; injected) | effect on venous injury (vein)
CN(C)CCc1c[nH]c2ccccc12 [DMT, N,N-dimethyltryptamine] | 0.3286 | 0.2 | 0.6021 | 0.1647 | causing vasoconstriction, phlebitis and eventual closing of the infusion veins | roughly 100 ng/ml | roughly 60 ng/ml | 100 | almost immediately after administration | ≤ 30 | 90 to 120 | 10 to 15 | around 5 minutes | virtually no effect | ≤ 2 | within about an hour or less | in the range of minutes | about 15 minutes | –
[Mg+2] [magnesium] | – | – | – | – | – | – | – | – | – | – | – | – | – | – | – | – | – | – | decrease venous injury

Source: patent US20240390581A1, “METHOD AND APPARATUS FOR A STEADY STATE INT[…] OF SEROTONERGIC DRUGS” (PSOULMED, LLC, priority 2021, published 2024)
